Experimental data from article PMC8746705, “Comparison of Experimental Strategies to Study L-Type Amino Acid Transporter 1 (LAT1) Utilization by Ligands” (Molecules, 2021).
Read-outs that look alike come from different tables or passages of the source.

Tests used:
LAT1 [1] = biological target: T1, LAT1 (Mus musculus, UniProt Q9Z127); assay: Cis-inhibition of radiolabelled LAT1-probe substrate uptake into BV2 cells; format: cell-based; conditions: 5 min, mean ± SD
Experimental: (§1) After removal of the culture medium, the BV2 cells were carefully washed with pre-warmed HBSS (Hank’s balanced salt solution) containing 125.0 mM choline chloride, 4.8 mM KCl, 1.2 mM MgSO4, 1.2 mM KH2PO4, 1.3 mM CaCl2, 5.6 mM glucose, and 25.0 mM HEPES (pH 7.4 adjusted with 1 M NaOH). Pre-incubation was done with 500 μL of pre-warmed HBSS at 37 °C for 10 min before adding substrates (250 μL in HBSS) for the uptake experiments.
The ability of compounds 1–15 to inhibit the uptake of a known LAT1 substrate [^14C]-L-leucine was then evaluated by incubating the cells at 37 °C for 5 min in uptake buffer pH 7.4 (250 μL) containing 0.2 µCi/mL of [^14C]-L-leucine, or 2 µCi/mL of [^3H]-L-methionine, [^3H]-L-tryptophan or [^3H]-L-kynurenine (PerkinElmer, Waltham, MA, USA) and 0.1–1000 μM of the studied compound (or HBSS as blank). After incubation, the uptake was stopped by adding 250 µL of ice-cold HBSS, and the cells were washed two times with ice-cold HBSS. The cells were then lysed with 500 μL of NaOH (0.1 M) for 60 min and the lysate was mixed with 3.5 mL of Emulsifier safe cocktail (Ultima Gold, PerkinElmer, Waltham, MA, USA). The radioactivity in the cells was measured by liquid scintillation counting (MicroBeta^2 counter, PerkinElmer Waltham, MA, USA). Half of the maximum inhibitory concentration (IC50) values were calculated by nonlinear regression analysis (fitting the curve to log (concentration) vs. remaining normalized […]).

LAT1 [2] = biological target: T1, LAT1; assay: Inhibition type of [14C]-L-Leu uptake (Hanes-Woolf plots) in BV2 cells; format: cell-based; conditions: for Vmax of [14C]-L-Leu uptake: 0.010–0.20 µM [14C]-L-Leu in the presence of the compound at its IC50, mean ± SD, n = 3–4; for IC50: Table 2, compound concentration used in the inhibition type study, corresponding to IC50 of [14C]-L-Leu uptake; for Inhibition Type: of [14C]-L-Leu uptake, concluded from Km and Vmax
Experimental: as §1
To evaluate the inhibition type of studied compounds, the BV2 cells were incubated with 0.010–0.20 μM [^14C]-L-leucine together with the studied compound. The concentration of compounds was selected according to the compound-specific IC50 values. The experiment was then carried out as described for the [^14C]-L-leucine uptake above and the radioactivity was measured by liquid scintillation counting. Hanes-Woolf plots were created by setting the ratio of initial substrate concentration to the reaction velocity ([S]/v) against [^14C]-L-leucine concentration (µM). The linear regression was used to calculate Km value (negative value of x-intercept) and Vmax value (1/slope) for [^14C]-L-leucine.

[3] = Time-dependent cellular uptake of compounds into BV2 cells (LC-MS/MS); format: cell-based, mouse; conditions: mouse, BV2 microglia cells, 100 µM compound, 1–60 min, mean ± SD, n = 3, read-out: T½ of cellular uptake
Experimental: (§2) For the time-dependent cellular uptake experiments, the BV2 cells on 24-well plates were incubated with studied compounds (100 μM) in a pre-warmed HBSS buffer (250 μL) at 37 °C for 1–60 min. Subsequently, the cells were washed three times with an ice-cold HBSS and lysed with 250 μL of NaOH (0.1 M) for 60 min. The lysates were diluted with acetonitrile (ACN) including the selected internal standard (diclofenac to all compounds) with a ratio of 1:3 and centrifuged at 10,000× g for 10 min. The samples were analyzed by the liquid chromatography-tandem mass spectrometric (LC-MS/MS) methods as described below. The concentrations of each compound in cell lysates were calculated from the standard curve that was prepared by spiking known amounts of compounds to ACN including the selected internal standard and then normalized with protein concentration. The protein concentrations on each plate were determined as a mean of three samples by Bio-Rad Protein Assay, based on the Bradford dye-binding method, using bovine serum albumin (BSA) as a standard protein and measuring the absorbance (595 nm) by multiplate reader (EnVision, Perkin Elmer, Inc., Waltham, MA, USA).
(§3) The studied compounds (1–15) were analyzed by using Agilent 1200 Series Rapid Resolution LC System together with an Agilent 6410 Triple Quadrupole Mass Spectrometer equipped with an electrospray ionization source (Agilent Technologies, Santa Clara, CA, USA). The chromatographic separations of analytes were achieved by using a reversed-phase Zobrax SB-C18 column (50 mm × 2.1 mm, 1.8 μm; Agilent Technologies, Santa Clara, CA, USA) by eluting the samples with 0.1% formic acid in water (A) and 0.1% formic in ACN (B). Labetalol and diclofenac were used as internal standards (ISTD) for the prodrugs and parent drugs, respectively. The transitions used for the quantification at the positive ion mode and chromatographic conditions of each compound and their parent drugs are listed in Table S1. The methods of compounds 1–11 have been reported earlier, while the methods of compounds 12–15 are reported herein for the first time.

[4] = system: immortalized mouse microglia (BV2); assay: as above; format: cell-based; conditions: 100 µM compound, 1–60 min, mean ± SD, n = 3
Experimental: as §2, §3

LAT1 [5] = biological target: T1, LAT1; assay: Concentration-dependent cellular uptake into BV2 cells, Eadie–Hofstee analysis, Transport Type 1 (LAT1); format: cell-based
Experimental: For the concentration-dependent cellular uptake experiments, the BV2 cells on 24-well plates were incubated with studied compounds (1–200 μM) in pre-warmed HBSS buffer (250 μL) at 37 °C for 30 min. The experiment was then carried out as described for the time-dependent uptake above and the concentration of studied compounds in the cell lysate was analyzed by the LC-MS/MS methods described above and the results were normalized to the total protein concentration. The distinct transport mechanisms were separated from the Michaelis-Menten kinetics by using Eadie–Hofstee plot.
as §3

LAT1 [6] = biological target: T1, LAT1; assay: Cellular uptake of compounds in the presence of LAT1-inhibitor (KMH-233); format: cell-based; conditions: 100 µM compound, 100 µM KMH-233, 30 min, BV2
Experimental: The competitive uptake in the presence of LAT1-inhibitor (KMH-233) was carried out as described above with HBSS buffer solution containing 100 µM of the studied compounds. The cells were pre-incubated with 100 µM LAT1-inhibitor for 10 min and the incubation mixture was removed before adding the studied compound and LAT1-inhibitor on the cells. The competitive uptake (30 min) with the inhibitor was then carried out as the normal uptake described above. The amounts of studied compounds were analyzed by the LC-MS method and calculated from the spiked standard curve and normalized with the protein concentrations.

[7] = Stability / bioconversion of prodrugs to parent drugs (biological media, 0.1 M NaOH cell lysing); format: in vitro ADME; conditions: cell lysate samples for LC-MS/MS (Table S1 footnote)
Source text: LAT1-utilizing prodrugs 1–15 (Figure 1) were selected for this study based on their ability to utilize LAT1 expressed in cells used in our previous studies. Therefore, the syntheses of these compounds are not described herein as they have been reported earlier. These compounds include prodrugs of an investigational immunosuppressive agent, perforin inhibitor (1), non-steroidal anti-inflammatory drugs (NSAIDs), ketoprofen (2–4, 14), salicylic acid (8), flurbiprofen (9 and 12), ibuprofen (10 and 13) and naproxen (11 and 15), as well as the polyphenolic antioxidant, ferulic acid (5–7). […] In addition, all NSAID prodrugs (compounds 2–4, 9–15) were prepared from their pure S-enantiomers. Prodrugs of ferulic acid (compounds 5–7) were mixtures of E- and […], which were interconvertible over time. […] Therefore, both prodrug and the released parent drug proportions were quantified and taken into account when calculating concentrations transported into the cells.
1. LC-MS/MS ionization parameters of compounds 1-15
Table S1. Ionization parameters for the LC-MS/MS methods of the studied compounds.
Precursor Product Fragmentor Collision Flow rate Gradient LLOQ
Compound ion ion(s) Voltage (V) Energy (mL/min) (A:B) (nM) […]
perforin inhibitor 1a and therefore, their transitions with a positive ion mode are reported only as KPF or as a prodrug and parent drug in parentheses. […]
drugs (ferulic acid (FA), flurbiprofen (FLB), ibuprofen (IBU), and naproxen (NPX), respectively), whose transitions with a negative ion mode are reported below the studied LAT1 -utilizing compounds i n parentheses.

LAT1 [8] = biological target: T1, LAT1; parameters: method as in earlier work; conditions: BV2 cells; probe [14C]-L-Leu; mean ± SD; published earlier; ref [31] or [33]; read-out: IC50 of [14C]-L-Leu uptake; cited from earlier work
LAT1 [9] = biological target: T1, LAT1; assay: LAT1 function followed between cell passages with [14C]-L-leucine; conditions: BV2 cells, passages 8–15
[10] = probe [3H]-L-Kynu, n = 3–4, read-out: IC50 of [3H]-L-Kynu uptake
[11] = probe [3H]-L-Met, n = 3–4, read-out: IC50 of [3H]-L-Met uptake
[12] = probe [3H]-L-Trp, n = 3–4, read-out: IC50 of [3H]-L-Trp uptake
[13] = 1–200 µM, 30 min, BV2, Eadie–Hofstee, mean ± SD, n = 3

T1 sequence (Q9Z127 whole entry): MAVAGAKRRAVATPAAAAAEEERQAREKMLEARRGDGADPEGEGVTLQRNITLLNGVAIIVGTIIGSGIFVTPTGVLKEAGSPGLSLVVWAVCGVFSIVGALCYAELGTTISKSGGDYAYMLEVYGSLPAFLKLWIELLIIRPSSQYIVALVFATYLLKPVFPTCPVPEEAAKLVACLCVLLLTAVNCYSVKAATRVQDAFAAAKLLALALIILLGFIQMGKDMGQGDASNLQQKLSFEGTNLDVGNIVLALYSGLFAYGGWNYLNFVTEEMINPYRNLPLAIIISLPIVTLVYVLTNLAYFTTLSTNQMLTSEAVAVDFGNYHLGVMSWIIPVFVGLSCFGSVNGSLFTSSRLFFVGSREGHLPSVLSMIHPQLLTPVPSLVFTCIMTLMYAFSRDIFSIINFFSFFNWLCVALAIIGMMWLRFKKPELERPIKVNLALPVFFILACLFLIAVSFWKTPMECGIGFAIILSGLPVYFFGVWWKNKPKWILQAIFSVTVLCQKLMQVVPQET
T1 sequence (P10852 whole entry partner): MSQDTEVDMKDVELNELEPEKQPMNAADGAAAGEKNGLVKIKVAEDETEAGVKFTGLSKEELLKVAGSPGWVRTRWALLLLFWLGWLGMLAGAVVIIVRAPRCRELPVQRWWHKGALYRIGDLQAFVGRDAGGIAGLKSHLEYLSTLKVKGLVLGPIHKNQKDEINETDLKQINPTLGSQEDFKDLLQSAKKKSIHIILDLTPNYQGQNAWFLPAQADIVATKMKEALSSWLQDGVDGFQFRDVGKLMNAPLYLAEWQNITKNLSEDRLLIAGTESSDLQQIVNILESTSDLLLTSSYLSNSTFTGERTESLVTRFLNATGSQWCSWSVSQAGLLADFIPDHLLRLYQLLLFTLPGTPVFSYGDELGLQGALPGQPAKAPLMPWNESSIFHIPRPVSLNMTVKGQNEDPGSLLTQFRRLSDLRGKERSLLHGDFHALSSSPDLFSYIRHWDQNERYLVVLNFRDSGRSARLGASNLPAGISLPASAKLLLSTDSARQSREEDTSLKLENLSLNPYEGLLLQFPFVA

| SMILES | IC50 (LAT1 [1]; [10]) [µM] | IC50 (LAT1 [1]; [11]) [µM] | IC50 (LAT1 [1]; [12]) [µM] | Vmax of [14C]-L-Leu uptake (LAT1 [2]; BV2) [nmol/min/mg] | IC50 (LAT1 [2]) [µM] | Inhibition Type (LAT1 [2]; BV2) | half-life at 100 μM [3] [min] | Max. cellular uptake [4] | Cellular uptake (LAT1 [5]; BV2 cells) | Cellular uptake in the presence of LAT1-inhibitor (LAT1 [6]) | Conversion to parent drug in the analysed samples [7] | IC50 (LAT1 [8]) [µM] | Km (LAT1 [5]; [13]) [µM] | Transport Type 1 (LAT1) Vmax (LAT1 [5]; [13]) [pmol/mg/min] | Vmax of [14C]-L-Leu uptake (control) (LAT1 [2]; 0.010–0.20 µM [14C]-L-Leu alone, no compound, BV2) [nmol/min/mg] | Km (LAT1 [2]; 0.010–0.20 µM [14C]-L-Leu alone, no compound, BV2, read-out: Km of [14C]-L-Leu uptake (control)) [µM] | Vmax of [14C]-L-leucine uptake (LAT1 [9]) [nmol/min/mg protein] | Km (LAT1 [9]; read-out: Km of [14C]-L-leucine uptake) [µM] |
| --- | --- | --- | --- | --- | --- | --- | --- | --- | --- | --- | --- | --- | --- | --- | --- | --- | --- | --- |
| C[C@H](C(=O)OCc1ccc(C[C@@H](N)C(=O)O)cc1)c1cccc(C(=O)c2ccccc2)c1 [Compound 14] | 91.5 ± 1.2 | 32 ± 1.4 | 37.6 ± 1.7 | 2.622 ± 0.268 | 53 | Mixed type | 2.2 ± 0.62 | 10.20 ± 0.61 nmol/mg of protein | highest cellular uptake | only reductive trends were seen | fully converted into ketoprofen | 52.9 ± 1.3 |  |  |  |  |  |  |
| CC(C)Cc1ccc([C@H](C)C(=O)Oc2cccc(C[C@H](N)C(=O)O)c2)cc1 [Compound 13] | 9.7 ± 1.2 | 9.8 ± 1.4 | 36.3 ± 1.2 | 2.186 ± 0.231 | 5 | Mixed type | 3.6 ± 1.47 | 25.90 ± 2.41 nmol/mg of protein |  | inhibited significantly | partly converted to their parent | 5.3 ± 1.2 | 8.2 ± 1.8 | 63 ± 8 |  |  |  |  |
| CC(C)C[C@H](N)C(=O)O [L-Leu (Crtl), L-leucine, reference compound] |  |  |  |  |  |  |  |  |  |  |  |  |  |  | 3.403 ± 0.055 | 0.115 ± 0.007 | 0.84 ± 0.12 | 85.8 ± 19.4 |
